Literature values, collected in patent US6818658B2, “Acylated piperidine derivatives as melanocortin-4 receptor agonists” (Merck & Co., Inc., priority 2001, dated 2004).

Columns and labels:
[1] = patients
[2] = injected intramuscularly or subcutaneously, males with psychogenic erectile dysfunction

Row | Compound | duration of effect [1] [h] | onset of action ([1]; for sildenafil after an oral dose) [min] | response rate [2] [%]
1 | Cc1ccc(N(CC2=NCCN2)c2cccc(O)c2)cc1 [phentolamine] | 2 | 5 to 30 | 
2 | Ac-Nle-c[Asp-His-DPhe-Arg-Trp-Lys]-NH2 [MT-II] |  |  | 75
